Consider 23 molecules from patent US6492370B1, “Urea derivatives and pharmaceutical compositions thereof” (Santen Pharmaceutical Co., Ltd., priority 1998, dated 2002).

The test system of the first data set is TNF-α production from human monocytic line THP-1 by LPS stimulation. The experiment in a line: In vitro test: TNF-α production from human monocytic line THP-1 by LPS stimulation. As to conditions: 2 h; test compound 10^−5 M, THP-1 cells 10^6/ml, LPS 2 μg/ml, 37° C. for two hours, human TNF-α specific ELISA; read-out: Inhibition rate (%) (TNF-α inhibition rates). Type of data set: cell-based. The method, then:
(§1) Inhibitory effects on TNF-α production induced by lipopolysaccharide (LPS) stimulation were studied by in vitro or in vivo tests according to the method of McGeehan et al. (Nature, 370, […](1994)).
Analyses were carried out by measuring TNF-α production from human monocytic line THP-1 by LPS stimulation.
As a medium, an RPMI1640medium containing a fetal bovine serum(10%), L-glutamine (2 mM), 2-mercaptoethanol (50 μM), penicillin (50 units/ml) and streptomycin (50 μg/ml) was used.
With respect to cells, human monocytic line THP-1 cells cultured in the above-mentioned medium were centrifuged at 100×g for five minutes to remove supernatant and then re-suspended in the medium. With respect to LPS, LPS from S. Typhimurium was dissolved in purified water and then diluted with the medium. Test compounds were dissolved in dimethyl sulfoxide (DMSO) and then diluted with the medium.
The cells (10^6/ml), LPS (2 μg/ml) and the test compound (10^−5 M) prepared as mentioned above were mixed, and this mixture was incubated at 37° C. for two hours and then centrifuged at 1000×g […] in cultured supernatant were measured with a human TNF-α specific ELISA kit. TNF-α production was not observed in the cultured supernatant in the absence of LPS (control).
(§2) TNF-α production inhibition rates of the test compounds were determined by the following equation.
(§3) Inhibition rate (%)=[(A-B)/A]×100
A: TNF-α level in supernatant of culture medium in the absence of test compound
B: TNF-α level in supernatant of culture medium in the presence of test compound
The term inhibition denotes how much of the control response was suppressed. Take `CC(=O)SCCN(CCc1ccccc1)C(=O)N[C@@H](Cc1ccc([N+](=O)[O-])cc1)C(=O)NCCN(C(C)C)C(C)C` [Compound No. 27-10]: the inhibition at 10 µM worked out at 100%. Turning to `COc1ccc(C[C@H](NC(=O)N(CCSC(C)=O)CCc2ccccc2)C(=O)NCCN(C)C)cc1` [Compound No. 27-56, (2S)-2-[3-[2-(Acetylthio)ethyl]-3-phenethylureido]-N-[2-(dimethylamino)ethyl]-3-(4-methoxyphenyl)propionamide], the inhibition at 10 µM turned out to be 96.9%. On the same count and under the same terms, with `CC(=O)SCCN(CCc1ccccc1)C(=O)N[C@@H](Cc1ccc([N+](=O)[O-])cc1)C(=O)NCCN(C)C` [Compound No. 27-41, (2S)-2-[3-[2-(Acetylthio)ethyl]-3-phenethylureido]-N-[2-(dimethylamino)ethyl]-3-(4-nitrophenyl)propionamide] the figure was 93.8%; with `CC(=O)SCCN(CCc1ccccc1)C(=O)N[C@@H](Cc1ccc2ccccc2c1)C(=O)NCCN(C)C` [Compound No. 27-58, (2S)-2-[3-[2-(Acetylthio)ethyl]-3-phenethylureido]-N-[2-(dimethylamino)ethyl]-3-(2-naphthyl)propionamide], 100%. Still for that read-out and setting: with `CN(C)CCNC(=O)[C@H](Cc1ccc([N+](=O)[O-])cc1)NC(=O)N(CCSC(=O)c1ccccc1)CCc1ccccc1` [Compound No. 27-42, (2S)-2-[3-[2-(Benzoylthio)ethyl]-3-phenethylureido]-N-[2-(dimethylamino)ethyl]-3-(4-nitrophenyl)propionamide] the figure was 100%; with `CC(=O)SCCN(CCc1ccccc1)C(=O)N[C@@H](Cc1ccc(-c2ccccc2)cc1)C(=O)NCCN(C)C` [Compound No. 27-59, (2S)-2-[3-[2-(Acetylthio)ethyl]-3-phenethylureido]-3-(4-biphenylyl)-N-[2-(dimethylamino)ethyl]propionamide], 100%. On to `CC(=O)SCCN(CCc1ccccc1)C(=O)N[C@@H](Cc1ccc(Cl)cc1)C(=O)NCCN(C)C` [Compound No. 27-17, (2S)-2-[3-[2-(Acetylthio)ethyl]-3-phenethylureido]-3-(4-chlorophenyl)-N-[2-(dimethylamino)ethyl]propionamide], for which the inhibition at 10 µM was found to be 93.5%.

In another data set the test system is TNF-α production induced by lipopolysaccharide (LPS) stimulation. Briefly: In vivo test: TNF-α levels in plasma of LPS-administered rats. Also noted: species or system rat. As to conditions: Rattus norvegicus, 2 h; female rats, oral administration of 50 mg/kg immediately after subcutaneous LPS, plasma two hours after LPS; read-out: Inhibition rate (%) (TNF-α production inhibition rates). The method, then:
as §1
Female rats (five per group), body weight of about 200 g,about eight weeks old, were used as test animals. With respect to LPS to be used, LPS from Salmonella was dissolved in physiological saline (1 mg/ml). Test compounds were dissolved or uniformly suspended in a 1% aqueous methylcellulose solution.
The above-mentioned LPS solution (0.5 ml/kg) was subcutaneously administered to the rat. Immediately after the LPS administration, the test compound preparation liquid (5 ml/kg, containing 50 mg/kg test compound) was orally administered. Two hours after the LPS administration, blood was collected from abdominal aorta and was centrifuged at 4° C. and 3000 rpm for ten minutes. TNF-α levels in the obtained plasma were measured with a rat TNF-α-specific ELISA kit. TNF-α was not observed in the plasma with respect to an LPS-nonadministered group (control).
as §2, §3
A: TNF-α level in plasma of test compound-nonadministered group
B: TNF-α level in plasma of test compound-administered group
On to `CC(=O)SCCN(C(=O)N[C@@H](C)C(=O)N1CCN(C)CC1)c1ccccc1` [Compound No. 13-17, 1-[(2S)-2-[3-[2-(Acetylthio)ethyl]-3-phenylureido]propionyl]-4-methylpiperazine], for which the inhibition in vivo at 50 mg/kg amounted to 50.3%. For the molecule `CC(=O)SCCN(CCC1CCCCC1)C(=O)N[C@@H](C)C(=O)N1CCN(C)CC1` [Compound No. 13-1, 1-[(2S)-2-[3-[2-(Acetylthio)ethyl]-3-(2-cyclohexylethyl)ureido]propionyl]-4-methylpiperazine], the inhibition in vivo at 50 mg/kg came to 84.6%. Same read-out and setting: with `CC(=O)SCCN(CCC1CCCCC1)C(=O)N[C@@H](C)C(=O)N1CCOCC1` [Compound No. 13-50, 4-[(2S)-2-[3-[2-(Acetylthio)ethyl]-3-(2-cyclohexylethyl)ureido]propionyl]morpholine] the figure was 93.5%; with `CC(=O)SCCN(CCC1=CCCCC1)C(=O)N[C@@H](C)C(=O)N1CCN(C)CC1` [Compound No. 27-84, 1-[(2S)-2-[3-[2-(Acetylthio)ethyl]-3-[2-(1-cyclohexenyl)ethyl]ureido]propionyl]-4-methylpiperazine], 56.7%; with `CC(=O)SCCN(CCC1CCCC1)C(=O)N[C@@H](C)C(=O)N1CCN(C)CC1` [Compound No. 13-57, 1-[(2S)-2-[3-[2-(Acetylthio)ethyl]-3-(2-cyclopentylethyl)ureido]propionyl]-4-methylpiperazine], 90.1%. Still for that read-out and setting: with `CC(=O)SCCN(CCc1ccccc1)C(=O)N[C@H](C)C(=O)N1CCN(C)CC1` [Compound No. 13-3, 1-[(2R)-2-[3-[2-(Acetylthio)ethyl]-3-phenethylureido]propionyl]-4-methylpiperazine] the figure was 66.8%. Still for that read-out and setting: the figure for `CC(=O)SCCN(CCc1ccccc1)C(=O)NCC(=O)N1CCN(C)CC1` [Compound No. 13-20, 1-[2-[3-[2-(Acetylthio)ethyl]-3-phenethylureido]acetyl]-4-methylpiperazine] is 66.6%; for `CC(=O)SCCN(CCC1CCCCC1)C(=O)N[C@@H](C)C(=O)N1CCCCC1` [Compound No. 13-49, 1-[(2S)-2-[3-[2-(Acetylthio)ethyl]-3-(2-cyclohexylethyl)ureido]propionyl]piperidine] it is 90%; for `CSCCC(NC(=O)N(CCSC(C)=O)CCc1ccccc1)C(=O)N1CCN(C)CC1` (racemic) [Compound No. 27-4, 1-[(2RS)-2-[3-[2-(Acetylthio)ethyl]-3-phenethylureido]-4-(methylthio)butyryl]-4-methylpiperazine] it is 60.9%. Consider `CC(=O)SCCN(CCCc1ccccc1)C(=O)N[C@@H](C)C(=O)N1CCN(C)CC1` [Compound No. 13-12, 1-[(2S)-2-[3-[2-(Acetylthio)ethyl]-3-(3-phenylpropyl)ureido]propionyl]-4-methylpiperazine], for which the inhibition in vivo at 50 mg/kg amounted to 62.3%.

The data set is the same for the next values; noted with them: female rats, oral administration of 50 mg/kg immediately after subcutaneous LPS, plasma two hours after LPS.
As for `CC(=O)SCCN(CCOc1ccccc1)C(=O)N[C@@H](C)C(=O)N1CCN(C)CC1` [Compound No. 13-16], the “Inhibition rate (%) (TNF-α production inhibition rates)” value was 54.1%.

System in another data set: not given
Assay: not given
Conditions: not given
One may read the melting point as the temperature of the solid-liquid transition. On to `CC(=O)SCCN(CCc1ccccc1)C(=O)N[C@@H](Cc1ccc([N+](=O)[O-])cc1)C(=O)NCCN1C(=O)c2ccccc2C1=O` [Compound No. 27-45, (2S)-2-[3-[2-(Acetylthio)ethyl]-3-phenethylureido]-3-(4-nitrophenyl)-N-[2-(phthalimido)ethyl]propionamide], for which the melting point was 110 °C. For the molecule `CC(=O)SCCN(CCc1ccccc1)C(=O)N[C@@H](Cc1ccccc1)C(=O)N1CCN(CC(=O)O)CC1` [Compound No. 13-32, 1-[(2S)-2-[3-[2-(Acetylthio)ethyl]-3-phenethylureido]-3-phenylpropionyl]-4-(carboxymethyl)piperazine], the melting point is 230 °C (dec.). On the same count and under the same terms, with `CC(=O)Nc1ccc(C[C@H](NC(=O)N(CCSC(C)=O)CCc2ccccc2)C(=O)NCCN(C)C)cc1` [Compound No. 27-82, (2S)-3-[4-(Acetylamino)phenyl]-2-[3-[2-(acetylthio)ethyl]-3-phenethylureido]-N-[2-(dimethylamino)ethyl]propionamide] the figure was 95 °C (dec.). Same read-out and setting: with `CC(=O)SCCN(CCc1ccccc1)C(=O)N[C@@H](Cc1ccc([N+](=O)[O-])cc1)C(=O)NCCc1ccccn1` [Compound No. 27-50, (2S)-2-[3-[2-(Acetylthio)ethyl]-3-phenethylureido]-3-(4-nitrophenyl)-N-[2-(2-pyridyl)ethyl]propionamide] the figure was 106 to 112.5 °C; with `CC(=O)SCCN(CCc1ccccc1)C(=O)N[C@@H](Cc1ccc(F)cc1)C(=O)NCCN(C)C` [Compound No. 27-54, (2S)-2-[3-[2-(Acetylthio)ethyl]-3-phenethylureido]-N-[2-(dimethylamino)ethyl]-3-(4-fluorophenyl)propionamide], 90 °C.
